Measurements as given in patent US12037354B2, “Cyclic pantetheine derivatives and uses thereof” (VectivBio Comet AG, priority 2018, dated 2024).

How the values were obtained:
Assay type in all cases: cell-based, human
[1] = system: Coronary artery smooth muscle cells (CASM3C system); assay: BioMAP CASM3C system, Example 832
Method: (§1) The BioMAP platform (BioMAP® Diversity PLUS Panel from Eurofins) is an in vitro phenotypic profiling technology that screened the compounds of the present disclosure (hereafter indicated as test agents) in human primary cell-based systems modelling complex tissue and disease states. The BioMAP assays were performed using the Eurofin's BioMAP Technology Platform as (see references 1 to 13 in the example 824 section) to model different diseases on primary cell-based model systems. These systems consisted of either single primary cell types or co-culture cells. Adherent cell types were cultured or co-cultured in 96 or 384-well plates until confluence followed by the addition of compounds prepared in DMSO at a final concentration of ≤0.1%. In each cell-based system, primary cells from heathy donors (2-6 donors) were pooled and treated with compounds at 1 and 10 μM dose 1 h prior to stimulation and remain in culture as indicated in
(§2) Example 825, Example 826, Example 827, Example 828, Example 829, Example 830, Example 831, Example 832, Example 833, Example 834, Example 835, Example 836 and Example 837. For on the BioMAP® Diversity PLUS® Panel, please see the following references, which are incorporate herein.
Following the general procedure as described in Example 824, Coronary artery smooth muscle cells (CASM3C system) were treated with IL-1β, TNFα and IFNγ for 24 h in the presence or absence of the compounds to model cardiovascular inflammation and restenosis. Biomarker reads out were; MCP-1, VCAM-1, Throbomodulin, Tissue factor, uPAR, IL-8, MIG, HLA-DR, IL-6, LDLR, M-CSF, PAI-1, Proliferation, SAA and SRB

[2] = system: Peripheral blood mononuclear cells co-cultured with venular endothelial cells (HUVEC) (LPS system); assay: BioMAP LPS system, Example 827
Method: as §1, §2
Following the general procedure as described in Example 824, Peripheral blood mononuclear cells co-cultured with venular endothelial cells (HUVEC) (LPS system) were stimulated with LPS for 24 h in the presence or absence of compounds, to model cardiovascular disease and chronic inflammation. Biomarkers read out were; MCP-1, VCAM-1, Thrombomodulin, Tissue Factor, CD40, E-selectin, CD69, IL-8, IL-1α, M-CSF, sPGE2, SRB and TNFα.

[3] = system: Dermal fibroblasts (HDF3CGF system); assay: BioMAP HDF3CGF system, Example 833
Method: as §1, §2
Following the general procedure as described in Example 824, Dermal fibroblasts (HDF3CGF system) were treated with IL-1β, TNFα and IFNγ, EGF, bFGF and PDGF-BB for 24 h in the presence or absence of the compounds to model fibrosis and chronic inflammation. Biomarkers read out were; MCP-1, VCAM-1, ICAM-1, Collagen-I, Collagen-III, IP-10, I-TAC, IL-8, MIG, EGFR, M-CSF, MMP-1, PAI-1, SRB, TIMP-1, TIMP-2 and proliferation was measured for 72 h.

[4] = system: Peripheral blood mononuclear cells co-cultured with venular endothelial cells (Sag system); assay: BioMAP Sag system, Example 828
Method: as §1, §2
Following the general procedure as described in Example 824, Peripheral blood mononuclear cells were co-cultured with venular endothelial cells and treated with soluble antigen (T-cell ligands) (Sag system) in the presence or absence of compounds to model autoimmune and chronic inflammation. Biomarkers read out were; MCP-1, CD38, CD40, E-selectin, CD69, IL-8, MIG, PBMC cytotoxicity, Proliferation and SRB.

[5] = system: Venular Endothelial cells (HUVEC) (3C system); assay: BioMAP 3C system, Example 825
Method: as §1, with “In each cell-based system, primary cells from heathy donors (2-6 donors) were pooled and treated with compounds at 1 and 10 μM dose 1 h prior to stimulation and remain in culture as indicated in” left out
Following the general procedure as described in Example 824, Venular Endothelial cells (HUVEC) (3C system) were treated with IL-1β, TNFα, IFNγ for 24 h to model Th1 driven cardiovascular and chronic inflammation diseases in the presence or absence of the compounds. Biomarker read out were; Tissue Factor, ICAM-1, E-selectin, uPAR (CD87), IL-8, […], HLA-DR, proliferation and SRB (Sulfo-rhodamine i.e. staining for protein content).

[6] = system: Venular endothelial cells co-cultured with macrophages (Mphg system); assay: BioMAP Mphg system, Example 836
Method: as §1, §2
Following the general procedure as described in Example 824, Venular endothelial cells co-cultured with macrophages (Mphg system) and treated with TLR2 ligand for 24 h in the presence or absence of the compounds to mimic cardiovascular inflammation, restenosis and chronic inflammation. Biomarkers read out were; MCP-1, MIP-1α, VCAM-1, CD40, E-selectin, CD69, IL-8, IL-1α, M-CSF, sIL-10 and SRB.

[7] = system: Keratinocytes co-cultured with dermal fibroblast (KF3CT system); assay: BioMAP KF3CT system, Example 834
Method: as §1, §2
Following the general procedure as described in Example 824, Keratinocytes were co-cultured with dermal fibroblast (KF3CT system) and treated with […], TNFα, IFNγ and TGFβ for 24 h in the presence or absence of the compounds to model psoriasis, dermatitis and skin biology. Biomarkers read out were; MCP-1, ICAM-1, IP-10, IL-8, MIG, IL-1α, MMP-9, PAI-1, SRB, TIMP-2, uPA.

[8] = Example 988, concentration tested 1 uM
[9] = procedure of Example 827, concentration tested 1 uM

C/C=C/C(=O)SCCNC(=O)CCNC(=O)[C@@H]1OP(=O)(O)OCC1(C)C [Compound 36]
≥10%: % decrease in LDLR ([1]; 1 uM) | % decrease in VCAM-1 ([1]; 1 uM) | % decrease in uPAR ([1]; 1 uM) | % decrease in HLA-DR ([1]; 10 uM) | % decrease in M-CSF ([1]; 10 uM) | % decrease in Tissue Factor ([1]; 10 uM) | % decrease in IL-1α ([2]; LPS system, 1 uM) | % decrease in Thrombomodulin ([2]; LPS system, 1 uM) | % decrease in Tissue Factor ([2]; LPS system, 10 uM) | % decrease in sPGE2 ([2]; LPS system, 10 uM) | % decrease in sTNFα ([2]; LPS system, 10 uM) | % decrease in IL-1α ([2]; concentration tested 1 uM) | % decrease in Thrombomodulin ([2]; concentration tested 1 uM) | % decrease in Tissue Factor ([2]; concentration tested 10 uM) | % decrease in sTNFα ([2]; concentration tested 10 uM) | % decrease in EGFR ([3]; 1 uM) | % decrease in TIMP-1 ([3]; 1 uM) | % decrease in MMP-1 ([3]; 10 uM) | % increase in 72 Hour Proliferation ([3]; 10 uM) | % decrease in CXCL8/IL-8 ([4]; Sag system, 10 uM) | % decrease in CXCL8/IL-8 ([4]; concentration tested 10 uM) | % decrease in IL-8 ([5]; 3C system, 10 uM) | % decrease in IL-8 ([5]; procedure of Example 825, concentration tested 10 uM) | % increase in MIP-1α ([6]; Mphg system, 10 uM)
≥20%: % decrease in Thrombomodulin ([1]; 10 uM) | % decrease in M-CSF [2, 8] | % decrease in IL-8 ([2]; LPS system, 1 uM) | % decrease in M-CSF ([2]; LPS system, 1 uM) | % decrease in IL-8 [2, 9] | % decrease in TIMP-2 ([3]; 1 uM) | % increase in Proliferation (HUVEC) ([5]; 3C system, 10 uM) | % increase in Proliferation (HUVEC) ([5]; concentration tested 10 uM)

CC(=O)CC(=O)SCCNC(=O)CCNC(=O)[C@@H]1OP(=O)(O)OCC1(C)C [Compound 42]
≥10%: % decrease in IL-8 ([1]; 10 uM) | % decrease in LDLR ([1]; 10 uM) | % decrease in Thrombomodulin ([1]; 10 uM) | % decrease in MCP-1 ([7]; 1 uM (Example 927)) | % decrease in MCP-1 ([7]; 1 uM (Example 928)) | % decrease in IL-1α ([2]; LPS system, 1 uM) | % decrease in Thrombomodulin ([2]; LPS system, 1 uM) | % decrease in Tissue Factor ([2]; LPS system, 10 uM) | % decrease in IL-1α ([2]; concentration tested 1 uM) | % decrease in Thrombomodulin ([2]; concentration tested 1 uM) | % decrease in Tissue Factor ([2]; concentration tested 10 uM) | % decrease in TIMP-2 ([3]; 10 uM) | % increase in CD69 ([4]; Sag system, 10 uM) | % increase in MCP-1 ([4]; Sag system, 10 uM) | % increase in CD69 ([4]; concentration tested 10 uM) | % decrease in α-SMA ([6]; procedure of Example 836, 1 uM) | % increase in MMP-1 ([6]; procedure of Example 836, 1 uM)
≥20%: % decrease in M-CSF [2, 8] | % decrease in IL-8 ([2]; LPS system, 1 uM) | % decrease in M-CSF ([2]; LPS system, 1 uM) | % increase in sTNFα ([2]; LPS system, 10 uM) | % increase in sTNFα ([2]; concentration tested 10 uM) | % decrease in IL-8 [2, 9]
